Results on 67 compounds are retold here after patent US20080146593A1, “Substituted 5-Phenyl Pyrimidines I In Therapy” (Basf Aktiengesellschaft, priority 2005, published 2008).

For orientation: IC50 means the concentration needed to halve the response being measured.

This assay deals with HeLa cells. Put plainly: Measurement of the cell cycle inhibition in HeLa cells. The note with it: HeLa B cells, 20 h incubation with compound; FACS ratio G0/G1 to G2/M vs DMSO; concentration at which 50% of cells are in cell cycle arrest. In kind it is cell-based. On the procedure: Measurement of the Cell Cycle Inhibition in HeLa Cells—Test Procedure:
HeLa B cells are grown in DMEM (Life Technologies Cat No 21969-035) supplemented with 10% Fetal Calf Serum (FCS, Life Technologies Cat No 10270-106) in 180 cm^2 Flasks at 37° C., 92% humidity and 7% CO2.
Cells are seeded at 5×10^4 cells per well in a 24-well plate. Twenty hours later the compounds are added such that the final concentration is 1×10^−6, 3.3×10^−7, 1.1×10^−7, 3.7×10^−8, 1.2×10^−8 and 1×10^−9 M in a final volume of 500 μl. DMSO alone is added to 6 wells as a control. Cells are incubated with the compounds as above for 20 h. Then cells are observed under the microscope to check for cell death, and the 24-well plate is then centrifuged at 1200 rpm for 5 min at 20° C., acceleration position 7 and break position 5 (Eppendorf centrifuge 5804R).
The supernatant is removed and the cells lysed with 0.5 ml RNase Buffer (10 mM NaCitrate, 0.1% Nonidet NP40, 50 μg/ml RNase, 10 μg/ml Propidium iodide) per well. The plates are then incubated for at least 30 min in the dark at RT and the samples then transferred to FACS tubes. Samples are measured in a FACS machine (Beckton Dickinson) at the following settings:
Instrument Settings of the FACS Calibur:
The ratio of cells in G0/G1-phase to G2/M phase is calculated and compared to the value for the controls (DMSO) only. Results are given in table 2 as the IC50 value calculated from the concentration curve plotted against the cell cycle ratio and indicate the compound concentration at which 50% of cells are in cell cycle arrest after treatment with the compound.
On to `COc1cc(F)c(-c2c(Cl)nc(-n3cccn3)nc2N2CCC(C)CC2)c(F)c1` [Example 67], for which the IC50 was 13 nM. Take `CCC(C)Nc1nc(-n2ccc(N)n2)nc(Cl)c1-c1c(C)cccc1F` (stereo not shown) [Example 143]: the IC50 is 32 nM.

For `Cc1csc(-c2nc(Cl)c(-c3c(F)cc(F)cc3F)c(N[C@@H](C)C(F)(F)F)n2)n1` [Example 178], the 50% inhibitory concentration (IC50) stood at 20 nM. With `Cc1nc(-n2cncn2)nc(N2CCC(C)CC2)c1-c1c(F)cc(F)cc1F` [Example 93], the IC50 is 39 nM. Turning to `C[C@H](Nc1nc(-n2ccc(-c3ccccc3)n2)nc(Cl)c1-c1c(F)cc(F)cc1F)C(F)(F)F` [Example 4], the IC50 is 41 nM. The value for `CC[C@H](C)Nc1nc(-n2cccn2)nc(Cl)c1-c1ccc(C)cc1F` [Example 102] was 50 nM; that for `CC(C)Nc1nc(-n2ccc(N)n2)nc(Cl)c1-c1c(F)cc(F)cc1F` [Example 104] was 47 nM. On to `CC(C)Nc1nc(-n2cccn2)nc(Cl)c1-c1c(F)cc(F)cc1F` [Example 101], for which the IC50 was determined as 33 nM. As to `CON=C(N)c1nc(Cl)c(-c2c(F)cc(OC)cc2F)c(N[C@@H](C)C(C)C)n1` [Example 198], the IC50 was found to be 15 nM. The value for `CC1CCN(c2nc(-n3cnc(N)n3)nc(Cl)c2-c2c(F)cc(F)cc2F)CC1` [Example 94] was 25 nM.

`Cc1ccn(-c2nc(Cl)c(-c3c(F)cc(F)cc3F)c(NC(C)C)n2)n1` [Example 18]: the IC50 was found to be 39 nM. Regarding `Cc1ccnc(-c2nc(Cl)c(-c3c(F)cc(F)cc3F)c(NC(C)C)n2)c1` [Example 15], the IC50 was determined as 43 nM. Turning to `CC1CCCN(c2nc(-n3cccn3)nc(Cl)c2-c2c(F)cc(F)cc2F)C1` (stereo not shown) [Example 43], the IC50 is 19 nM. Regarding `COCC(C)Nc1nc(-n2ccc(N)n2)nc(Cl)c1-c1ccc(C)cc1F` (stereo not shown) [Example 128], the 50% inhibitory concentration (IC50) came to 38 nM.

For the compound `CC1CCN(c2nc(C(N)=NO)nc(Cl)c2-c2c(F)cc(F)cc2F)CC1` [Example 58], the IC50 amounted to 26 nM. Turning to `CC1CCN(c2nc(-n3ccnn3)nc(Cl)c2-c2ccc(F)cc2Cl)CC1` [Example 119], the IC50 came out at 48 nM.

Turning to `COc1cc(F)c(-c2c(Cl)nc(C(N)=NO)nc2N[C@@H](C)C(C)C)c(F)c1` [Example 191], the IC50 is 12 nM. As for `COc1cc(F)c(-c2c(Cl)nc(C(N)=NO)nc2N2CCC(C)CC2)c(F)c1` [Example 190], the 50% inhibitory concentration (IC50) was found to be 26 nM.

As to `CCC(C)Nc1nc(-n2cncn2)nc(Cl)c1-c1c(F)cccc1F` (stereo not shown) [Example 113], the IC50 came out at 49 nM. Take `CCN(CC)c1nc(-c2cnccn2)nc(Cl)c1-c1c(F)cc(F)cc1F` [Example 26]: the half-inhibitory concentration (IC50) turned out to be 38 nM. Turning to `CC1CCN(c2nc(-n3ccnn3)nc(Cl)c2-c2c(F)cc(F)cc2F)CC1` [Example 29], the IC50 is 17 nM. Turning to `CC1CCCCN1c1nc(-n2ccc(N)n2)nc(Cl)c1-c1c(F)cccc1F` (stereo not shown) [Example 127], the half-inhibitory concentration (IC50) turned out to be 37 nM. For the compound `CCC(C)Nc1nc(-n2ccnn2)nc(Cl)c1-c1c(F)cccc1F` (stereo not shown) [Example 114], the IC50 worked out at 41 nM. Turning to `CC1CCCN1c1nc(-n2cncn2)nc(Cl)c1-c1c(F)cc(F)cc1F` (stereo not shown) [Example 75], the IC50 came out at 14 nM. Regarding `CC(C)[C@@H](C)Nc1nc(-n2ccnn2)nc(Cl)c1-c1c(F)cccc1Cl` [Example 50], the IC50 is 9.1 nM. As for `C[C@H](Nc1nc(C(N)=NO)nc(Cl)c1-c1cc(F)ccc1Cl)C(F)(F)F` [Example 220], the IC50 came to 36 nM. Regarding `CC(C)C(C)Nc1nc(-c2cccnn2)nc(Cl)c1-c1c(F)cc(F)cc1F` (stereo not shown) [Example 80], the IC50 is 26 nM. As for `Cc1cccc(-c2nc(Cl)c(-c3c(F)cc(F)cc3F)c(N[C@@H](C)C(F)(F)F)n2)n1` [Example 13], the IC50 was 16 nM. The value for `C=CCCN(C)c1nc(-n2cccn2)nc(Cl)c1-c1ccc(F)cc1Cl` [Example 132] was 46 nM; that for `CCOC(=O)c1cc(C)nn1-c1nc(Cl)c(-c2c(F)cc(F)cc2F)c(N[C@H](C)C(C)C)n1` [Example 88] was 44 nM; that for `C[C@H](Nc1nc(C(N)=NO)nc(Cl)c1-c1c(F)cccc1F)C(F)(F)F` [Example 175] was 18 nM.

For the compound `COc1cc(F)c(-c2c(Cl)nc(-c3ccccn3)nc2N[C@@H](C)C(C)C)c(F)c1` [Example 65], the IC50 was found to be 20 nM. Consider `CCC(C)Nc1nc(-n2cc(C#N)cn2)nc(Cl)c1-c1c(F)cccc1Cl` (stereo not shown) [Example 163], for which the IC50 stood at 30 nM. `CCCC(C)Nc1nc(-n2ccc(N)n2)nc(Cl)c1-c1ccc(C)cc1F` (stereo not shown) [Example 121]: the concentration for half-maximal inhibition (IC50) came out at 50 nM.

Consider `C[C@H](Nc1nc(-n2nccn2)nc(Br)c1-c1c(F)cc(F)cc1F)C(F)(F)F` [Example 165], for which the half-maximal inhibitory concentration (IC50) was 30 nM.

With `C[C@H](Nc1nc(C(N)=NO)nc(Cl)c1-c1c(F)cccc1Cl)C(F)(F)F` [Example 176], the half-maximal inhibitory concentration (IC50) was 20 nM. Consider `CCC(C)Nc1nc(-c2csc(C)n2)nc(Cl)c1-c1c(F)cc(F)cc1F` (stereo not shown) [Example 71], for which the half-inhibitory concentration (IC50) was 25 nM. Next, `CC1CCN(c2nc(-c3ccccn3)nc(Cl)c2-c2c(F)cc(O)cc2F)CC1` [Example 73]: 11 nM; `Fc1cc(F)c(-c2c(Cl)nc(-n3ccnn3)nc2N2CCCCC2)c(F)c1` [Example 56]: 11 nM. Regarding `CC1CCN(c2nc(-c3ccccn3)nc(Cl)c2-c2c(F)cccc2F)CC1` [Example 81], the 50% inhibitory concentration (IC50) is 34 nM. For the compound `CCOC(=O)C(C)C=NNc1nc(Cl)c(-c2c(F)cc(F)cc2F)c(N[C@@H](C)C(F)(F)F)n1` (stereo partly shown) [Example 152], the IC50 was 24 nM. For the compound `C[C@H](Nc1nc(C(N)=O)nc(Cl)c1-c1c(F)cc(F)cc1F)C(F)(F)F` [Example 159], the half-inhibitory concentration (IC50) was 23 nM.

Consider `COc1cc(F)c(-c2c(Cl)nc(-n3cncn3)nc2N2CCC(C)CC2)c(F)c1` [Example 68], for which the IC50 came to 20 nM. Turning to `CCC(C)Nc1nc(-n2cc(I)cn2)nc(Cl)c1-c1c(C)cccc1F` (stereo not shown) [Example 120], the half-inhibitory concentration (IC50) turned out to be 25 nM.

On to `CCC(C)Nc1nc(ON=C(C)C)nc(Cl)c1-c1c(C)cccc1F` (stereo not shown) [Example 112], for which the concentration for half-maximal inhibition (IC50) stood at 21 nM. Take `Cc1nc(-n2cccn2)nc(N[C@@H](C)C(F)(F)F)c1-c1c(F)cc(F)cc1F` [Example 156]: the concentration for half-maximal inhibition (IC50) is 15 nM.

Take `CON=C(N)c1nc(Cl)c(-c2c(F)cc(F)cc2F)c(N[C@@H](C)C(C)C)n1` [Example 147]: the half-maximal inhibitory concentration (IC50) turned out to be 41 nM.

Take `C[C@H](Nc1nc(-n2nccc2[N+](=O)[O-])nc(Cl)c1-c1c(F)cc(F)cc1F)C(F)(F)F` [Example 7]: the IC50 was 21 nM. On to `CC1CCCN1c1nc(-n2ccnn2)nc(Cl)c1-c1c(F)cc(F)cc1F` (stereo not shown) [Example 76], for which the IC50 turned out to be 7.6 nM. `COc1cc(F)c(-c2c(Cl)nc(C(N)=O)nc2N[C@@H](C)C(F)(F)F)c(F)c1` [Example 189]: the IC50 came out at 30 nM.

For `COc1ccc(-c2c(Cl)nc(C(N)=O)nc2N[C@@H](C)C(F)(F)F)c(Cl)c1` [Example 217], the IC50 came to 23 nM.

Take `CC1CCCN1c1nc(-n2cccn2)nc(Cl)c1-c1c(F)cccc1F` (stereo not shown) [Example 140]: the IC50 turned out to be 20 nM.

As for `CON=C(N)c1nc(Cl)c(-c2ccc(OC)cc2Cl)c(N[C@@H](C)C(F)(F)F)n1` [Example 216], the 50% inhibitory concentration (IC50) was 27 nM. On to `C[C@H](Nc1nc(C(N)=S)nc(Cl)c1-c1c(F)cccc1Cl)C(F)(F)F` [Example 169], for which the IC50 came out at 41 nM. For `CC(C)Nc1nc(C(N)=NO)nc(Cl)c1-c1c(F)cc(F)cc1F` [Example 144], the IC50 turned out to be 25 nM. Take `CON=C(N)c1nc(Cl)c(-c2c(F)cc(OC)cc2F)c(N2CCC(C)CC2)n1` [Example 197]: the IC50 came out at 42 nM. For `CC(C)[C@H](C)Nc1nc(-n2ccnn2)nc(Cl)c1-c1c(F)cc(F)cc1F` [Example 139], the concentration for half-maximal inhibition (IC50) came to 26 nM.

Turning to `CCC(C)Nc1nc(-c2ccccn2)nc(Cl)c1-c1c(F)cc(OC)cc1F` (stereo not shown) [Example 63], the IC50 came to 22 nM.

`C[C@H](Nc1nc(-c2nccs2)nc(Cl)c1-c1c(F)cc(F)cc1F)C(F)(F)F` [Example 129]: the concentration for half-maximal inhibition (IC50) came out at 14 nM.

With `COc1cc(F)c(-c2c(Cl)nc(-c3ccccn3)nc2N2CCC(C)CC2)c(F)c1` [Example 61], the IC50 is 21 nM.

For `C=CCN(CC=C)c1nc(-n2cc(Br)cn2)nc(Cl)c1-c1ccc(F)cc1Cl` [Example 134], the IC50 turned out to be 50 nM.

Turning to `CCC(C)Nc1nc(-n2cccn2)nc(Cl)c1-c1c(F)cccc1Cl` (stereo not shown) [Example 106], the IC50 stood at 12 nM. The value for `CC(C)C(C)Nc1nc(-c2ccccn2)nc(Cl)c1-c1c(F)cccc1F` (stereo not shown) [Example 84] was 27 nM; that for `CC1CCN(c2nc(-c3cccnn3)nc(Cl)c2-c2c(F)cc(F)cc2F)CC1` [Example 79] was 21 nM; that for `CON=C(N)c1nc(Cl)c(-c2c(F)cc(F)cc2F)c(N[C@H](C)C(F)(F)F)n1` [Example 130] was 1.8 nM.

Take `COc1cc(F)c(-c2c(Cl)nc(-c3ccccn3)nc2NC(C)C)c(F)c1` [Example 62]: the half-inhibitory concentration (IC50) was found to be 23 nM. The value for `NC(=NO)c1nc(Cl)c(-c2c(F)cc(F)cc2F)c(NCC(F)(F)F)n1` [Example 173] was 18 nM.
